Reference: ChEMBL document CHEMBL5291721, “A preclinical secondary pharmacology resource illuminates target-adverse drug reaction associations of marketed drugs” (Nat Commun, 2023)

Columns and labels:
[1] = molecular target: T1, Neuropeptide Y receptor type 2 (Homo sapiens, UniProt P49146)
T1 sequence (P49146 whole entry): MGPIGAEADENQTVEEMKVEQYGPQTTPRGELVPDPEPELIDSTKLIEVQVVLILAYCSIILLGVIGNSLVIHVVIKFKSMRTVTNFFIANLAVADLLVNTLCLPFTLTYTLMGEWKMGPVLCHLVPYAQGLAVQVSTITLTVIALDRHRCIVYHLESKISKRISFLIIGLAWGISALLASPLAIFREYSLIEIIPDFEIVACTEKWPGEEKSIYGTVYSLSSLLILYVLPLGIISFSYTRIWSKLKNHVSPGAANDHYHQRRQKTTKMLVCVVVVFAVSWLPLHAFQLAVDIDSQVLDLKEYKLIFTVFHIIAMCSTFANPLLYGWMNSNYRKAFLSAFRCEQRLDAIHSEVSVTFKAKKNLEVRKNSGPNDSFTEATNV

[2] = molecular target: Neurotensin receptor type 1 (Homo sapiens, UniProt P30989)
B1 bradykinin receptor = molecular target: T2, B1 bradykinin receptor (Homo sapiens, UniProt P46663)
T2 sequence (P46663 whole entry): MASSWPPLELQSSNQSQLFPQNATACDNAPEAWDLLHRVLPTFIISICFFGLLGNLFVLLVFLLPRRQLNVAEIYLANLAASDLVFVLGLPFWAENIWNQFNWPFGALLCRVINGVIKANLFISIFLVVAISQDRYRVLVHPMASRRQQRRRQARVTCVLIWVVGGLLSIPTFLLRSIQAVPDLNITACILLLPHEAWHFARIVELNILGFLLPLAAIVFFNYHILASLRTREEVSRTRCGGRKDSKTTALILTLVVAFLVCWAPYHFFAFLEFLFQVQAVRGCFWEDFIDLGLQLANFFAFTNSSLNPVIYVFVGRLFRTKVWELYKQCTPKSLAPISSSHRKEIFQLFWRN

Androgen receptor = molecular target: T3, Androgen receptor (Rattus norvegicus, UniProt P15207)
T3 sequence (P15207 whole entry): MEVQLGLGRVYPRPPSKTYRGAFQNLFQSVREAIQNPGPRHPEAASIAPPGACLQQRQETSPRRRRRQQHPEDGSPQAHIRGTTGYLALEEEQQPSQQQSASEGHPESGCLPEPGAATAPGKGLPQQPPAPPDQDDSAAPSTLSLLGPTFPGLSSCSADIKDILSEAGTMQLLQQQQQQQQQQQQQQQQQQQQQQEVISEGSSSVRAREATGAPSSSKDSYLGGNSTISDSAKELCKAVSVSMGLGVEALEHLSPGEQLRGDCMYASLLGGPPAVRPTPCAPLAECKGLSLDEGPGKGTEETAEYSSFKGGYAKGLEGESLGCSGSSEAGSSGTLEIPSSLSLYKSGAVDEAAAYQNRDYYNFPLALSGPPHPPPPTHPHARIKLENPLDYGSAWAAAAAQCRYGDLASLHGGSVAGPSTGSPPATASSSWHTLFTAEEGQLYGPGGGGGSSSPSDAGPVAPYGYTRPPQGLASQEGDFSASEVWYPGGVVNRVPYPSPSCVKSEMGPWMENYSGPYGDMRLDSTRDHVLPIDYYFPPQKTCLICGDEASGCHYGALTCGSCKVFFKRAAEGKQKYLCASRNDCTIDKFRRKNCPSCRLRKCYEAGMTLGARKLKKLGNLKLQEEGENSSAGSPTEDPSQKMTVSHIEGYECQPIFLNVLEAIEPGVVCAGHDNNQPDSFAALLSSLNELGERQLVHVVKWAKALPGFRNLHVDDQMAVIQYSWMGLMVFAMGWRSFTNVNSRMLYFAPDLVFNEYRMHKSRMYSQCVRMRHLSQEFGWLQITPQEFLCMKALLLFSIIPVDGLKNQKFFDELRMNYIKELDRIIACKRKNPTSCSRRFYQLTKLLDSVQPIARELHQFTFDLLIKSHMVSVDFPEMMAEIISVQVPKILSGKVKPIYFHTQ

Histamine H2 receptor = Histamine H2 receptor (Homo sapiens, UniProt P25021)
[3] = molecular target: 5-hydroxytryptamine receptor 6 (Homo sapiens, UniProt P50406)
Substance-P receptor = Substance-P receptor (Homo sapiens, UniProt P25103)
[4] = molecular target: T4, Corticotropin-releasing factor receptor 1 (Homo sapiens, UniProt P34998)
T4 sequence (P34998 whole entry): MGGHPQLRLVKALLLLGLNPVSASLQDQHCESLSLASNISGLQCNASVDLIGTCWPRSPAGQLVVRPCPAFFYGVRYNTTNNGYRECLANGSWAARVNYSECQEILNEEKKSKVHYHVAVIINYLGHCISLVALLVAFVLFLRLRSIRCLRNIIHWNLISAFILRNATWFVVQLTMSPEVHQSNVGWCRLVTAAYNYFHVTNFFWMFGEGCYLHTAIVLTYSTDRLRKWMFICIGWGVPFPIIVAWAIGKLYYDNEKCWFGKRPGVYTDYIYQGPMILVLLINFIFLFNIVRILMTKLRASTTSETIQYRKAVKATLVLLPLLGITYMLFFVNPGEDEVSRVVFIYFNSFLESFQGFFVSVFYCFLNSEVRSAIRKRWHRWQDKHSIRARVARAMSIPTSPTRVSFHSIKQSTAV

[5] = molecular target: T5, Muscarinic acetylcholine receptor M2 (Homo sapiens, UniProt P08172)
T5 sequence (P08172 whole entry): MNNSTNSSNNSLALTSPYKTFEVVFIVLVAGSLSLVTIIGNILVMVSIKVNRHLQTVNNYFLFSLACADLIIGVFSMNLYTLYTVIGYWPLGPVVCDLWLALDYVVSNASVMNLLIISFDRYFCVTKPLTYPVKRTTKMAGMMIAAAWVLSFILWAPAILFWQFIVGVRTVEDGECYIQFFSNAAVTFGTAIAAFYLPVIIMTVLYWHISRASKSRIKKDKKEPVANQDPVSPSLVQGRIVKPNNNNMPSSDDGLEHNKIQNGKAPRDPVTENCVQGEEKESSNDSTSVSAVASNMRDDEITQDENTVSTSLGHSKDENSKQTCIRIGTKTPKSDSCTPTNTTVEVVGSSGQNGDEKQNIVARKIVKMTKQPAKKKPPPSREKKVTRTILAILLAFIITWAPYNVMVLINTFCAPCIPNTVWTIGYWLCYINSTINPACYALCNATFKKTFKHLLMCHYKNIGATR

Histamine H1 receptor [6] = molecular target: T6, Histamine H1 receptor (Homo sapiens, UniProt P35367); type: functional, cell-based
Histamine H1 receptor [7] = molecular target: T6, Histamine H1 receptor; type: functional, cell-based; remark: listed apart in the source
[8] = molecular target: Beta-1 adrenergic receptor (Homo sapiens, UniProt P08588); type: functional, cell-based
Further: assay procedure not described here.

Chain of Neurotensin receptor type 1 (P30989 whole entry): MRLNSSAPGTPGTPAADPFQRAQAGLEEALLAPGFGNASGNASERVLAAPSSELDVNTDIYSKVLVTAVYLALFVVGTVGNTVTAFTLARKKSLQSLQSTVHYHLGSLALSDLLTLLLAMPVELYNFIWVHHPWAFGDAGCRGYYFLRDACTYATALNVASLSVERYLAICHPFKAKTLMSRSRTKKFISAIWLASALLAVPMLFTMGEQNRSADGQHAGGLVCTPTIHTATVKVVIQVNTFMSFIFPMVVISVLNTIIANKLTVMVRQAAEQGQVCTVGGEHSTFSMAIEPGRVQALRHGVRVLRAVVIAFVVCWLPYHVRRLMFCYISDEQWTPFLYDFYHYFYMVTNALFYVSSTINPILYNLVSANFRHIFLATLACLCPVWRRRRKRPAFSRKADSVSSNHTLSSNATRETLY
Chain of 5-hydroxytryptamine receptor 6 (P50406 whole entry): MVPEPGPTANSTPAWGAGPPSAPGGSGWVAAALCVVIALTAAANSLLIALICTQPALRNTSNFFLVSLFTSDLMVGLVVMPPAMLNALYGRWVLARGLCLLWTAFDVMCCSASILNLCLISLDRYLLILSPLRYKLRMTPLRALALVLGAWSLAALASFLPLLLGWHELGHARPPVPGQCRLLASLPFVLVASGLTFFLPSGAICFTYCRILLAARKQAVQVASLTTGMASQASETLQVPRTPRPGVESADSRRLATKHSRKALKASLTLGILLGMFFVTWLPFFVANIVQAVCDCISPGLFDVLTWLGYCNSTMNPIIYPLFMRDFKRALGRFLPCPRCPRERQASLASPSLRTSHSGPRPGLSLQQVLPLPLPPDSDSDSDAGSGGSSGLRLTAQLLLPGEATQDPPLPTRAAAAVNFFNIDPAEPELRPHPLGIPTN
Chain of Substance-P receptor (P25103 whole entry): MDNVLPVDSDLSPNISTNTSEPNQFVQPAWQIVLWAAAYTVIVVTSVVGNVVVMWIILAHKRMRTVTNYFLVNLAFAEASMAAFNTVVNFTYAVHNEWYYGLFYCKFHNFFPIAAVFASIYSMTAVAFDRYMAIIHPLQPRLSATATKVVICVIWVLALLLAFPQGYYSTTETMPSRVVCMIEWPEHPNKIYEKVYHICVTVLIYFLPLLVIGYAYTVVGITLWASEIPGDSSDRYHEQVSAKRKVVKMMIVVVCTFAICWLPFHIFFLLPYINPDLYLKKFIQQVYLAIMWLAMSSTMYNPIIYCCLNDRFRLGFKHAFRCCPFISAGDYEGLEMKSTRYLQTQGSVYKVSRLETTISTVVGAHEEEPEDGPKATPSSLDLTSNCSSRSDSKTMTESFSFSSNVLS
T6 sequence (P35367 whole entry): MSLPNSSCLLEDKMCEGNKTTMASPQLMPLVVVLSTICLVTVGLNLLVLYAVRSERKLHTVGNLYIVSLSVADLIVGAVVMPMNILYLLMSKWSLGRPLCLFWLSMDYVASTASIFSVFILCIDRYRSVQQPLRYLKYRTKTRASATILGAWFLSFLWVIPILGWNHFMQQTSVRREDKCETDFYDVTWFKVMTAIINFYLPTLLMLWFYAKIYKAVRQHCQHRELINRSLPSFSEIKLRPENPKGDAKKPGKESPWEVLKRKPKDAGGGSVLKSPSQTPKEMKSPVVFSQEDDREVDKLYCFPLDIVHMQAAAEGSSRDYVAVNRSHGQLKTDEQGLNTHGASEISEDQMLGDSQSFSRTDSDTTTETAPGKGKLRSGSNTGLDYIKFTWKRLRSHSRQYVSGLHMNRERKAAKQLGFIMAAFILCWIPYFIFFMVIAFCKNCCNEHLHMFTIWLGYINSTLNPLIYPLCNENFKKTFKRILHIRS
Chain of Histamine H2 receptor (P25021 whole entry): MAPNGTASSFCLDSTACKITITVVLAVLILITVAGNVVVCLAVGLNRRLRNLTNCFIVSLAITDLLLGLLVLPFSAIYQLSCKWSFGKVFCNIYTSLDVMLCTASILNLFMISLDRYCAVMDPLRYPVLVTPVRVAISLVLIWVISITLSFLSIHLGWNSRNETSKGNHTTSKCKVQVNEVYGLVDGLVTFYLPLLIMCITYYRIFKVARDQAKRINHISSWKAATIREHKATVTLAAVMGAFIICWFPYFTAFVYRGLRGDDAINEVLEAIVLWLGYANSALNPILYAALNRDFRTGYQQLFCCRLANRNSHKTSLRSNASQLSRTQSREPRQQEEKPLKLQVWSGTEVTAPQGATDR
Chain of Beta-1 adrenergic receptor (P08588 whole entry): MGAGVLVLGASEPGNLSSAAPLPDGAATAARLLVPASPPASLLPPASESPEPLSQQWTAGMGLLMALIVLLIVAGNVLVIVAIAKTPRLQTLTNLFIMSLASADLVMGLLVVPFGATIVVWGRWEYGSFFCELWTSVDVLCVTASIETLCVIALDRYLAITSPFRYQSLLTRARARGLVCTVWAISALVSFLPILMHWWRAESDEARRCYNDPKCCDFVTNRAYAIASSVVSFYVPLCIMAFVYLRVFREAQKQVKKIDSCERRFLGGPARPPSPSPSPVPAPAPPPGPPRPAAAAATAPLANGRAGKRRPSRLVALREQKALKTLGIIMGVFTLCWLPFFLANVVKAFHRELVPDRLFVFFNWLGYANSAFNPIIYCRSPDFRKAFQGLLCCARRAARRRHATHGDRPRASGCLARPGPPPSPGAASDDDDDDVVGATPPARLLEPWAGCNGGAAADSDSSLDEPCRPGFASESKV

| SMILES | AC50 [1] [µM] | AC50 [2] [µM] | AC50 (B1 bradykinin receptor) [µM] | AC50 (Androgen receptor) [µM] | AC50 (Histamine H2 receptor) [µM] | AC50 [3] [µM] | AC50 (Substance-P receptor) [µM] | AC50 [4] [µM] | AC50 [5] [µM] | AC50 (Histamine H1 receptor [6]) [µM] | AC50 (Histamine H1 receptor [7]) [µM] | AC50 [8] [µM] |
| --- | --- | --- | --- | --- | --- | --- | --- | --- | --- | --- | --- | --- |
| CN1CCN(CC/C=C2/c3ccccc3Sc3ccc(S(=O)(=O)N(C)C)cc32)CC1 [THIOTHIXENE] | > 30 | > 30 | > 30 | > 30 | 0.145 | 0.455 | 3.84 | > 30 | – | – | – | – |
| CCc1c(Cl)c(O)c(Cl)c(O)c1C(=O)O[C@H]1[C@H](O)[C@H](OC)[C@H](OC/C2=C\C=C\C[C@H](O)/C(C)=C/[C@H](CC)[C@@H](O[C@@H]3OC(C)(C)[C@@H](OC(=O)C(C)C)[C@H](O)[C@@H]3O)/C(C)=C/C(C)=C/C[C@@H]([C@@H](C)O)OC2=O)O[C@@H]1C [FIDAXOMICIN] | > 30 | > 30 | > 30 | 25 | > 10 | – | 5.92 | > 30 | > 10 | – | – | – |
| CCCCc1ncc(/C=C(\Cc2cccs2)C(=O)O)n1Cc1ccc(C(=O)O)cc1 [EPROSARTAN] | > 30 | > 30 | > 30 | – | > 10 | > 10 | > 10 | > 30 | > 10 | > 30 | > 30 | – |
| CCCc1nc(C(C)(C)O)c(C(=O)OCc2oc(=O)oc2C)n1Cc1ccc(-c2ccccc2-c2nnn[nH]2)cc1 [OLMESARTAN MEDOXOMIL] | > 50 | > 30 | > 50 | – | – | > 10 | > 10 | > 30 | – | – | – | – |
| COc1ccc(CCN(C)CCCC(C#N)(c2cc(OC)c(OC)c(OC)c2)C(C)C)cc1OC (stereo unspecified) [GALLOPAMIL] | – | – | – | – | – | – | – | – | – | – | – | > 30 |
| NCC(=O)CCC(=O)O [AMINOLEVULINIC ACID] | – | – | – | – | – | – | – | – | – | > 30 | > 30 | – |
| CC(C)Cn1cnc2c(N)nc3ccccc3c21 [IMIQUIMOD] | – | – | – | > 10 | – | – | – | – | – | – | – | – |
| CCCN(CCC)C(=O)C(CCC(=O)O)NC(=O)c1ccccc1 (stereo unspecified) [PROGLUMIDE] | > 30 | > 30 | > 30 | – | > 10 | – | > 10 | > 30 | > 10 | – | – | – |
| CC(C)(C)c1cc(C(C)(C)C)c(NC(=O)c2c[nH]c3ccccc3c2=O)cc1O [IVACAFTOR] | – | – | – | > 30 | > 10 | – | – | – | > 10 | – | – | – |
| C=CCC1(CC(C)C)C(=O)NC(=O)NC1=O [BUTALBITAL] | – | – | – | > 10 | – | – | – | – | – | – | – | – |
| O=C(NCCNCC(O)COc1ccc(O)cc1)N1CCOCC1 (stereo unspecified) [XAMOTEROL] | – | – | – | – | – | – | – | – | – | > 30 | > 30 | – |
| CCC1(CC)C(=O)NCC(C)C1=O (stereo unspecified) [METHYPRYLON] | – | – | – | – | – | – | – | – | – | > 30 | > 30 | – |
| CNS(=O)(=O)Cc1ccc2[nH]cc(CCN(C)C)c2c1 | > 30 | > 30 | > 30 | – | > 10 | > 10 | – | > 30 | – | – | – | – |
| CN1C(=O)C(O)N=C(c2ccccc2)c2cc(Cl)ccc21 (stereo unspecified) [TEMAZEPAM] | > 30 | > 30 | > 30 | – | > 10 | – | > 10 | > 30 | > 10 | – | – | – |
| CCN(CC)C(=O)N[C@H]1C[C@@H]2c3cccc4[nH]cc(c34)C[C@H]2N(C)C1 [TERGURIDE] | – | – | – | – | – | – | – | – | – | > 30 | 7.49 | – |
